Measurements published in paper PMC9669016, “First-in-human phase Ia study of the PI3Kα inhibitor CYH33 in patients with solid tumors” (Nature Communications, 2022).

Legend:
[1] = system: phosphorylation of Akt and rpS6; set-up: method as in Investigator's Brochure (IB) 12; settings: ref Investigator's Brochure (IB) 12, cited from earlier work
PI3Kα and its mutants = system: PI3Kα and its mutants; set-up: method as in PMID 33109399; settings: read-out: IC50 range; cited from earlier work
[2] = set-up: method as in Study Protocol CYH33-101 Table 2; settings: in H2O; ref Study Protocol CYH33-101 Table 2; cited from earlier work
CYP2C19 = system: CYP2C19; set-up: method as in Investigator's Brochure (IB) 12; settings: up to 100 µM; ref Investigator's Brochure (IB) 12; cited from earlier work
SD rats = test: Long-term toxicity assay, SD rats; format: in vivo; settings: 3 mg/kg x 0.162 x 60 kg
From the text: Shanghai Haihe Biopharma Co., Ltd. Protocol No.: CYH33-101, Version: 5.0 […]
in hepatocytes was sign ificantly higher in dogs than in other species. The extent of hydrolytic metabolism of amide bonds in monk ey hepatocytes was low, but the extent of oxidative metabolism (M5, M6) was higher than that in other animal species. Oxidative metabolites of CYH33 were not detected in hum an hepatocytes, so th e metabolic effect of oxidative metabolic enzymes in human liver on C YH33 was not evaluated. The liver and intestine homogenates of dogs were collected, confirming that the amide hydrolysis of CYH33 was mainly catalyzed by carboxylesterase in liver. […]
transport across Caco-2 cells in the concentration range of 2.00 - 10.0 µM.
For detailed results of nonclinical pharmacokinetic and product metabol ism studies of […]
1.2.3 Results of Nonclinical Toxicological Study […]
tidal volume (TV), respiratory volume (MV) per minute and frequency of respiration (Rf) […]
on the central n ervous system (CNS) noticed.
The acute toxicity assay confirmed that the MTD was ≥ 600 mg/kg in SD rats, and the maximum tolerated dose (MTD) was >120 mg/kg in beagle dogs. The long-term toxicity […]
were greater than those in males, and the highest non-severely toxic dose (HNSTD) was 8 mg/kg in males and 3 mg/kg in females. […]

[3] = set-up: method as in Investigator's Brochure (IB) 12; settings: dogs, without concentration dependency; ref Investigator's Brochure (IB) 12; cited from earlier work

Structure (SMILES): COC(=O)Nc1cc(C(F)(F)F)c(-c2nc(N3CCOCC3)c3cc(CN4CCN(S(C)(=O)=O)CC4)cn3n2)cn1 [CYH33, methyl (5-(6-((4-(methylsulfonyl)piperazin-1-yl)methyl)−4-morpholinopyrrolo[2,1-f][1,2,4]triazin-2-yl)−4-(trifluoromethyl)pyridin-2-yl)carbamate]
- time of peak concentration in tumor tissues ([1]; single dose 12.5, 25, 50 mg/kg): 2 h
- phosphorylation of Akt and rpS6 in tumor tissues ([1]; single dose, at 0.25 h (25, 50 mg/kg) or 0.5 h (12.5 mg/kg), recovered after 8 h): down-regulate
- IC50 (PI3Kα and its mutants): 5 to 20 nM
- pKa [2]: 4.86 ± 0.06
- inhibition of CYP2C19 (CYP2C19): did not inhibit
- human equivalent dose (HED) of long-term HNSTD of rats (females), critical toxic dose (SD rats): about 30 mg
- plasma protein binding (PPB) [3]: 97.1%
